Each structure is given as a SMILES string. Like-named read-outs stand apart in the source and are kept apart here.

Experiment [1] concerns the target T1, HIV protease (Human immunodeficiency virus type 1 group M subtype B, UniProt P04585).
T1 construct: HIV protease was expressed in E. coli; made in house; host or cells: E. coli (plasmid pBRT1 prt+)
Description: Recombinant HIV Protease HPLC Assay. The class given is biochemical. From the text:
The procedure is based on the capacity of the test compound to inhibit enzymatic cleavage by HIV protease of a decapeptide (the substrate) having an amino acid sequence which includes a known HIV protease cleavage site of a HIV polyprotein; see H. G. Krausslich et al., Proc. Natl. Acad. Sci. USA, 86, 807 (1989). Details of this assay together with the results obtained for exemplified compounds of formula 1 are described in the examples hereinafter.
Recombinant HIV Protease HPLC Assay:
Enzyme: HIV protease was expressed in E. coli {construct pBRT1 prt^+, see W. G. Farmerie et al., Science, 236, 305 (1987)}, according to the following protocol:
E. coli cells containing the pBRT1 prt^+ plasmid were used to inoculate a seed culture media composed of Luria-Bertani Broth containing 100 μg/mL of ampicillin. Flasks were incubated at 37° under agitation for 17 h. Production flasks containing sterile M9 broth, supplemented with 100 μg/mL of ampicillin, were inoculated at a level of 1% (v/v) using the seed culture described above. Total volume in each production flask was 500 mL in a 2 L Erlenmeyer flask. Flasks were incubated at 37° under agitation until a cell concentration corresponding to an optical density ([…]) of 0.6 was reached (no dilution). This time span was routinely 3-4 h. Flasks were then supplemented with 5 mM isopropylthiogalactoside (IPTG, Research Organics, Cleveland, Ohio, USA) and incubation was continued until the cell concentration reached an optical density of 0.2 at 16-fold dilution. Flasks were then supplemented with 1 mM phenylmethylsulfonyl fluoride (PMSF) and rapidly chilled to 4°. The bacterial cells were recovered by centrifugation at 4°. The wet pellet was stored at -70°.
All steps below were performed at 4° unless otherwise indicated. Thawed cells were mixed with buffer A {50 mM tris(hydroxymethyl)[…] HCl (Tris-HCl, pH 7.4); 0.6 mM ethylenediaminetetraacetic acid (EDTA); 0.375M NaCl, 0.2% Nonidet P-40® (BDH Chemicals Ltd., Poole, UK); 1 mM PMSF}, at a ratio of one part cells to nine parts buffer A. Diatomaceous earth (Celite 545®, John Manville, Lompoc, Calif. USA) was added at a ratio of two parts to one part of wet cell weight. The resulting slurry was homogenized at high speed (ca. 20,000 rpm) on a Waring® industrial blender for 8×15 sec. pulses. Cell debris/Celite® was collected by centrifugation and the resulting pellet was extracted with 4.5 parts of buffer A to one part wet solids using the homogenization procedure described above. Supernatants from both homogenization steps were combined and soluble protein was precipitated by the addition of solid (NH4)2 SO4 to yield a final concentration of 75% saturation. This mixture was agitated for 60 min and the precipitate was recovered by centrifugation. The resulting pellet was suspended in buffer B {50 mM Tris-HCl, pH 8; 30 mM NaCl; 1 mM DL-dithiothreitol (DTT); 1 mM EDTA; 1 mM PMSF; 10% glycerol}, and dialyzed for 18 h against the same buffer.
An aliquot of the dialyzed extract containing 150 mg of the protein was loaded onto a Sephadex A25® anion exchange column (Pharmacia, Uppsala, Sweden) with bed dimensions of 70 cm length and 2.5 cm diameter. The sample was eluted isocratically with buffer B at a linear flow rate of 10 cm/h. Fractions containing HIV protease activity (see below for assay description) were combined, and soluble protein was precipitated by the addition of saturated aqueous (NH4)2 SO4 to yield a total (NH4)2 SO4 concentration of 85% saturation. Precipitated protein was removed by centrifugation and the resulting pellet was dissolved in buffer C {50 mM 2-(4-morpholino)ethanesulfonic acid (MES), pH 5.5; 150 mM NaCl; 1 mM DTT; 1 mM EDTA; 10% glycerol}. This preparation was dialyzed for 18 h against buffer C, and then frozen at -70°. All crude extracts were purified by chromatography in aliquots containing 150 mg of protein in the same manner as described above. […]

Experiment [2] relates to HIV (H9/HTLV-IIIB) in C8166 cells. As to the kind of experiment: plaque assay: inhibition of syncytia formation in HIV-infected C8166 cells. The format is cell-based. Particulars: Human immunodeficiency virus 1, IIIB, 72 h, 50% inhibition of syncytia formation. From the text: Typical of such procedures are those described by S. Harada and N. Yamamoto, Jpn. J. Cancer Res. (Gann), 76, 432 (1985), and S. Harada et al., Science, 229, 563 (1985). An assay based on the latter procedures is described in the examples hereinafter.
The following protocol, used for screening antiviral effects of the compounds of formula 1, is adapted from a plaque assay utilizing HTLV-I transformed cells, previously reported by Harada et al., supra. HTLV-I transformed cells are used because of the rapidity with which HIV will replicate in the cells.
1. The test compound is dissolved in dimethylsulfoxide to a concentration of 5 mg/mL. The resultant solution can be stored at 4° until use.
2. The resultant solution is diluted in RPMI 1640 (Gibco Laboratories, St. Lawrence, Mass., USA) to four times (4×) the final concentration which is to be tested. Once diluted in RPMI 1640, the solution is used in the cell culture assay within 4 h.
3. The 4× solution (50 μL) is added to triplicate wells of a 96 well flat bottomed microtiter plate. RPMI (50 μL) also is added to control wells.
4. C8166 cells (5×10^4) in 50 μL of HEPES-buffered RPMI 1640 (pH=7.2), 10% heat inactivated fetal calf serum (FCS), […] gentamicin (complete media) are added to all wells.
5. Fifty times TCID50 of H9/HTLV-IIIB stock (stored in liquid nitrogen as cell culture supernatant in 50% FCS) in 100 μL of complete media is added to all wells. Infectious titer of virus stocks are as previously determined by end point dilution on C8166 cells. Titer of stocks are stable for 6-12 months when stored at -193°.
6. Microtiter plates are then placed on level shelves of a 37°, 5% CO2 humidified incubator for 72 h.
7. Plates are then removed and centers of syncytia are counted in each well by low power phase contrast light microscopy. […] Control wells should have between 25 and 75 centers of syncytia per well.
8. Percent inhibition of syncytia formation is calculated by the formula: [formula]
The concentration of the test compound which causes a 50% inhibition of syncytia formation, i.e. the EC50, is determined by using the technique of serial dilution of the working solution at step 3 and by using non-linear regression analysis (SAS® program) to graphically plot the observed percent inhibition of syncytia formation against the various concentrations of the test compound.

On to `CC(C)[C@H](NC(=O)OCc1ccccc1)C(=O)N[C@@H](Cc1ccc(F)cc1)[C@H](O)CN1CC[C@@H](Sc2ccccc2)C[C@H]1C(=O)NC(C)(C)C` [Table IV, entry 26, N-tert-butyl-1-{3(S)-{{N-(benzyloxycarbonyl)valyl}amino}-2(R)-hydroxy-4-(4-fluorophenyl)butyl}-4(R)-(phenylthio)piperidine-2(S)-carboxamide], for which, in experiment [1] (Table IV, 37°, 30 min, pH 5.5), the IC50 is 3.5 nM. The same compound registered an EC50 in experiment [2] (Table IV) of 24 nM.

Turning to `CC[C@H](C)[C@H](NC(=O)OCc1ccccn1)C(=O)N[C@@H](Cc1ccccc1)[C@H](O)CN1CC[C@@H](c2ccccc2)C[C@H]1C(=O)NC(C)(C)C` [Table IV, entry 27, N-tert-butyl-1-{2(R)-hydroxy-4-phenyl-3(S)-{{N-{(2-pyridinylmethoxy)carbonyl}isoleucyl}amino}butyl}-4(R)-phenylpiperidine-2(S)-carboxamide], in experiment [1] (Table IV, 37°, 30 min, pH 5.5), the IC50 was 4.9 nM. Further, the EC50 in experiment [2] (Table IV) came out at 500 nM.

As to `CC(C)(C)NC(=O)[C@@H]1C[C@H](Sc2ccccn2)CCN1C[C@@H](O)[C@H](Cc1ccccc1)NC(=O)OCc1ccccc1` [Table IV, entry 28], in experiment [1] (Table IV, 37°, 30 min, pH 5.5), the IC50 was 16 nM. The compound further registered an EC50 in experiment [2] (Table IV) of 500 nM.

For the compound `CC(C)(C)NC(=O)[C@@H]1C[C@H](Sc2ccncc2)CCN1C[C@@H](O)[C@H](Cc1ccccc1)NC(=O)OCc1ccccc1` [Table IV, entry 29], the IC50 in experiment [1] (Table IV, 37°, 30 min, pH 5.5) was 8 nM. The compound also yielded an EC50 in experiment [2] (Table IV) of 140 nM.

As to `CC(C)(C)NC(=O)[C@@H]1C[C@H](Sc2ncccn2)CCN1C[C@@H](O)[C@H](Cc1ccccc1)NC(=O)OCc1ccccc1` [Table IV, entry 30, N-tert-butyl-1-{3(S)-(benzyloxycarbonylamino)-2(R)-hydroxy-4-phenylbutyl}-4(R)-(2-pyrimidinylthio)piperidine-2(S)-carboxamide], the IC50 in experiment [1] (Table IV, 37°, 30 min, pH 5.5) is 19 nM. In addition, the EC50 in experiment [2] (Table IV) turned out to be 822 nM.

In the case of `Cc1cc(C)nc(S[C@@H]2CCN(C[C@@H](O)[C@H](Cc3ccccc3)NC(=O)OCc3ccccc3)[C@H](C(=O)NC(C)(C)C)C2)n1` [Table IV, entry 31, N-tert-butyl-1-{3(S)-(benzyloxycarbonylamino)-2(R)-hydroxy-4-phenylbutyl}-4(R)-(4,6-dimethyl-2-pyrimidinylthio)-piperidine-2(S)-carboxamide], the IC50 in experiment [1] came out at 12 nM. The response in experiment [2] (Table IV) was half-maximal at 290 nM (EC50).

On to `CC(C)[C@H](NC(=O)OCc1ccccc1)C(=O)N[C@@H](Cc1ccccc1)[C@H](O)CN1CC[C@@H](Sc2ncccn2)C[C@H]1C(=O)NC(C)(C)C` [Table IV, entry 35, N-tert-butyl-1-{3(S)-{{N-(benzyloxycarbonyl)valyl}amino}-2(R)-hydroxy-4-phenylbutyl}-4(R)-(2-pyrimidinylthio)piperidine-2(S)-carboxamide], for which, in experiment [1] (Table IV, 37°, 30 min, pH 5.5), the IC50 stood at 3.7 nM. Moreover, the EC50 in experiment [2] (Table IV) was 15 nM.

Regarding `Cc1cc(C)nc(S[C@@H]2CCN(C[C@@H](O)[C@H](Cc3ccccc3)NC(=O)[C@@H](NC(=O)OCc3ccccc3)C(C)C)[C@H](C(=O)NC(C)(C)C)C2)n1` [Table IV, entry 36, N-tert-butyl-1-{3(S)-{{N-(benzyloxycarbonyl)valy}amino}-2(R)-hydroxy-4-phenylbutyl}-4(R)-(4,6-dimethyl-2-pyrimidinylthio)piperidine-2(S)-carboxamide], the IC50 in experiment [1] (Table IV, 37°, 30 min, pH 5.5) was found to be 3 nM. Moreover, a half-maximal response in experiment [2] (Table IV) (EC50) required 9 nM.

`CC(C)[C@H](NC(=O)OCc1ccccc1)C(=O)N[C@@H](Cc1ccccc1)[C@H](O)CN1CC[C@@H](SCc2ccccc2)C[C@H]1C(=O)NC(C)(C)C` [Table IV, entry 37, N-tert-butyl-1-{3(S)-{{N-(benzyloxycarbonyl)valyl}amino}-2(R)-hydroxy-4-phenylbutyl}-4(R)-(benzylthio)piperidine-2(S)-carboxamide]: the IC50 in experiment [1] (Table IV, 37°, 30 min, pH 5.5) was determined as 2.3 nM. Also, a half-maximal effect in experiment [2] (Table IV) (EC50) was put at 7 nM.

`CC(C)[C@H](NC(=O)N(C)Cc1ccccn1)C(=O)N[C@@H](Cc1ccccc1)[C@H](O)CN1CC[C@@H](Sc2ccccc2)C[C@H]1C(=O)NC(C)(C)C` [Table IV, entry 38, N-tert-butyl-1-{2(R)-hydroxy-3(S)-{N-{{N-methyl-N-(2-pyridinylmethyl)amino}carbonyl}valyl}-4-phenylbutyl}-4(R)-(phenylthio)piperidine-2(S)-carboxamide]: the IC50 in experiment [1] (Table IV, 37°, 30 min, pH 5.5) is 4.3 nM. The compound also yielded an EC50 in experiment [2] (Table IV) of 14 nM.

As for `CC(C)[C@H](NC(=O)c1ccc2ccccc2n1)C(=O)N[C@@H](Cc1ccccc1)[C@H](O)CN1CC[C@@H](Sc2ncccn2)C[C@H]1C(=O)NC(C)(C)C` [Table V, entry 1, N-tert-butyl-1-{2(R)-hydroxy-4-phenyl-3(S)-{{N-(2-quinolylinylcarbonyl)valyl}amino}butyl}-4(R)-(2-pyrimidinylthio)piperidine-2-carboxamide], the IC50 in experiment [1] (Table V, 37°, 30 min, pH 5.5) is 3.6 nM. Further, the EC50 in experiment [2] (Table V) is 7 nM.

Consider `CC(C)[C@H](NC(=O)c1ccc2ccccc2n1)C(=O)N[C@@H](Cc1ccccc1)[C@H](O)CN1CC[C@@H](SCc2ccncc2)C[C@H]1C(=O)NC(C)(C)C` [Table V, entry 2(S), N-tert-butyl-1-{2(R)-hydroxy-4-phenyl-3(S)-{{N-(2-quinolylinylcarbonyl)valyl}amino}butyl}-4(R)-{(4-pyridinylmethyl)thio}piperidine-2-carboxamide], for which the IC50 in experiment [1] (Table V, 37°, 30 min, pH 5.5) came out at 2.8 nM. The EC50 in experiment [2] (Table V) came out at 4 nM.

With `CC(C)[C@H](NC(=O)c1ccc2ccccc2n1)C(=O)N[C@@H](Cc1ccccc1)[C@H](O)CN1CC[C@@H](OCc2ccccn2)C[C@H]1C(=O)NC(C)(C)C` [Table V, entry 3, N-tert-butyl-1-{2(R)-hydroxy-4-phenyl-3(S)-{{N-(2-quinolylinylcarbonyl)valyl}amino}butyl}-4(R)-(2-pyridinylmethoxy)piperidine-2-carboxamide], in experiment [1] (Table V, 37°, 30 min, pH 5.5), the IC50 was 3.9 nM. Also, the response in experiment [2] (Table V) was half-maximal at 24 nM (EC50).

Source of the values: patent US5614533A, “Substituted pipecolinic acid derivatives as HIV protease inhibitors” (Bio-Mega/Boehringer Ingelheim Research, Inc., priority 1994, dated 1997).
